Data: US20150330989A1, “METHOD AND SYSTEM FOR DIAGNOSING AND TREATING PREECLAMPSIA” (THE BRIGHAM AND WOMEN'S HOSPITAL, INC., priority 2012, published 2015)

What was measured:
factor D = factor D (Homo sapiens, UniProt P00746); details: site of action factor D; cited from earlier work
[1] = system: severe preeclampsia/HELLP syndrome; assay: Case report: Eculizumab treatment of a pregnant patient with severe preeclampsia/HELLP syndrome; assay type: in vivo, human; details: initial course during Eculizumab treatment
C2, classical = biological target: T1, C2, classical (Homo sapiens, UniProt P06681); details: in vitro; cited from earlier work
T1 sequence (P06681 21-752): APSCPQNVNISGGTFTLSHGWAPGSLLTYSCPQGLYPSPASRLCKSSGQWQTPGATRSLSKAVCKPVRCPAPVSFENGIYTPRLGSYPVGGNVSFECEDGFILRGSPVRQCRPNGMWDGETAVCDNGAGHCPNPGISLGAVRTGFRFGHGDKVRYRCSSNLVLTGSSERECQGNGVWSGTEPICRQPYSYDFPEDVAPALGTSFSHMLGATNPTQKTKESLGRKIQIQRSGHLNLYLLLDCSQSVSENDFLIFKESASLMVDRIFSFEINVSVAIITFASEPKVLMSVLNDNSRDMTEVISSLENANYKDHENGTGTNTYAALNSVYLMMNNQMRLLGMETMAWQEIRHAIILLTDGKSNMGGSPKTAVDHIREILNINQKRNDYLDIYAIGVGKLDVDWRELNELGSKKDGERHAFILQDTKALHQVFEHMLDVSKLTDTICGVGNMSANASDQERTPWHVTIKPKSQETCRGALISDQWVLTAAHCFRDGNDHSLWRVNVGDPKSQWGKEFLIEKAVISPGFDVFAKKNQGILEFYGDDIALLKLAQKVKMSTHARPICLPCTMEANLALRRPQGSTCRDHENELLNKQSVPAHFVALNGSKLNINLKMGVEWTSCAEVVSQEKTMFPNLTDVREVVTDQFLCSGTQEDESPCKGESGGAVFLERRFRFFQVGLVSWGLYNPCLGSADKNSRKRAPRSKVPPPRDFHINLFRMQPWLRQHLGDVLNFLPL

C3 convertase, classical = biological target: T2, C3 convertase, classical (Homo sapiens, UniProt P06681); details: in vitro; cited from earlier work
T2 sequence (P06681 244-752 limits assumed): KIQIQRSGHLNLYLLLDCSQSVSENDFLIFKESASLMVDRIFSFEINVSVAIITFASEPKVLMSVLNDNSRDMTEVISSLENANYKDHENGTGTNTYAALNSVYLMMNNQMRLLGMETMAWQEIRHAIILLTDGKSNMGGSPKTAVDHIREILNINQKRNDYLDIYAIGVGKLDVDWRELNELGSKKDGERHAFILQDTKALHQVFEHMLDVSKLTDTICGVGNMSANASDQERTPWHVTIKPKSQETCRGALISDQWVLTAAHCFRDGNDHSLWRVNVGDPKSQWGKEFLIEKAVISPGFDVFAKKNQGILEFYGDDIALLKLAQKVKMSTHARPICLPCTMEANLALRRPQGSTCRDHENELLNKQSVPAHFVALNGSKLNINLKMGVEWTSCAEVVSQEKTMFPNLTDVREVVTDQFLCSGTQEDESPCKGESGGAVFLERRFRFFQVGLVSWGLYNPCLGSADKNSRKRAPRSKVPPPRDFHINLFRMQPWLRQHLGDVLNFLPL

patent ductus arteriosus = assay: NICU course of the neonate; assay type: in vivo, human
Description: The neonate was intubated at 10 min of life for respiratory support and admitted to the NICU. They were extubated the following morning after one dose of surfactant; blood cultures were negative; and head ultrasound was normal. NICU course was notable for a patent ductus arteriosus (responsive to Indomethacin) and inguinal hernia repair (day 67), after which they were discharged home in good condition. There were trace levels of Eculizumab in cord blood samples taken at delivery, thought secondary to contamination with maternal blood.

Chain of factor D (P00746 26-253): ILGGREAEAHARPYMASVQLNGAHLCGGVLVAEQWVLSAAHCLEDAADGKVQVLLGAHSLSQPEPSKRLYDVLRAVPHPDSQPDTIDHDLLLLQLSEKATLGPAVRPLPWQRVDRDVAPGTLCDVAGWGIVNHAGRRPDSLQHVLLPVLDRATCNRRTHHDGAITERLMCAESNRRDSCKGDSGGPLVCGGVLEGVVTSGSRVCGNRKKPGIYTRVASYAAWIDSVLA

For `N=C(N)c1cc2ccc(OC(=O)c3cccs3)cc2s1` [BCX-1470], the IC50 (factor D) is listed as 0.096 µM.

With `CC(CCc1ccccc1)NCC(O)c1ccc(O)c(C(N)=O)c1` (stereo not drawn) [Labetalol] the “escalating blood pressures, response” value [1] was “responded”.

For `CC1(C)[C@@H](O[C@H]2O[C@H](C(=O)O)[C@@H](O)[C@H](O)[C@H]2O[C@@H]2O[C@H](C(=O)O)[C@@H](O)[C@H](O)[C@H]2O)CC[C@]2(C)[C@H]3C(=O)C=C4[C@@H]5C[C@@](C)(C(=O)O)CC[C@]5(C)CC[C@@]4(C)[C@]3(C)CC[C@@H]12` [Glycyrrhizin], the IC50 (C2, classical) is listed as 35 µM.

For `NS(=O)(=O)c1cc(C(=O)O)c(NCc2ccco2)cc1Cl` [Lasix], the “pulmonary edema, response” value [1] was “responded”.

In the case of `O=C(/C=C/c1ccc(O)c(O)c1)O[C@H](Cc1ccc(O)c(O)c1)C(=O)O` [Rosmarinic acid], the IC50 (C3 convertase, classical) is listed as 5 to 10 µM.

For `COc1ccc2c(c1)c(CC(=O)O)c(C)n2C(=O)c1ccc(Cl)cc1` [Indomethacin], the “patent ductus arteriosus, response” value (patent ductus arteriosus) was “responsive”.
